# Measured values as given in paper PMC10025185, “A continuous in silico learning strategy to identify safety liabilities in compounds used in the leather and textile industry” (Archives of Toxicology, 2023).
# Where two headings read alike, the source gives them in different places.
# Columns and labels:
# [1] = tested on: CHO-K1 (Chinese hamster ovary cells); format: cell-based
# Protocol: The in vitro micronucleus test is a genotoxicity test for the detection of micronuclei in the cytoplasm of interphase cells. Tests were conducted in the presence of the cytokinesis blocker cytochalasin B with three different treatment schedules: (i) short treatment for 6 h; (ii) short treatment for 6 h in the presence of an exogenous source of metabolic activation (cofactor supplemented S9 liver fraction); and (iii) extended treatment for 24 h.
# CHO-K1 (Chinese hamster ovary cells, ATCC Item Number CCL-61) were cultured in DMEM F-12 containing 10% foetal bovine serum and 100 units/ml penicillin/100 μg/ml streptomycin (all from Sigma-Aldrich, St Louis, USA). Cells were seeded at 3000 cells/well in a collagen-coated 96-well plate in 100 μl. After 24 h, cells were incubated with CellTracker Orange CMTMR cellular dye solution (Invitrogen, Waltham, USA) for 1 h. Cells were then treated with compounds for 6 h, with or without S9 metabolic activation, or 24 h without S9 metabolic activation. […] After the 6-h compound treatment, cells were incubated with cytochalasin B (Alfa Aesar, Kandel, Germany) for 24 h. In case of 24-h treatment, cells were incubated with compounds in the presence of cytochalasin B and harvested after treatment. Benzo(a)pyrene, mitomycin C, and colchicine were used as positive controls for 6 h, with or without metabolic activation or 24 h treatments, respectively. […] After several washes with BupH-modified DPBS, cells were analysed in an Operetta High-Content Imaging System (PerkinElmer, Waltham, USA). […] Statistical significance was determined with the ANOVA test with significance level adjusted to p < 0.05.
# [2] = set-up: method as in earlier work; settings: ref https://comptox.epa.gov/dashboard, https://echa.europa.eu/es/information-on-chemicals, cited from earlier work
# [3] = logKow as a measure of bioaccumulation, extracted from public databases; format: physicochemical; settings: yes/no by logKow, REACH cut off 4,5
# [4] = tested on: androgen and oestrogen receptors; test: ED assays of androgen and oestrogen receptors (overall experimental ED result); format: cell-based
# Protocol: The transcriptional activation of androgen receptor (AR) assays was carried out by adapting the OECD protocol 458 (OECD [2020]).
# MDA-MB-453 cells (8000 cells/well) expressing an AR luciferase reporter were seeded into 384 white plates (Greiner 781098) in culture medium (DMEM (ATCC), 10% foetal bovine serum (Sigma Aldrich), 1% penicillin–streptomycin (Sigma-Aldrich), 75 µg/ml geneticin (Gibco) and incubated overnight at 37 °C 5% CO2 and 95% humidity. After this time, the cell culture medium was discarded and replaced by assay medium (DMEM (ATCC), 0.1% foetal bovine serum (Sigma-Aldrich), and 1% penicillin–streptomycin (Sigma Aldrich)).
# For studying a putative agonist effect, compounds were added to the assay plate using an Echo 550 acoustic liquid handler and incubated overnight at 37 °C 5% CO2 and 95% humidity. For studying the putative antagonist effect, compounds were added using an Echo 550 acoustic liquid handler and incubated for 15 min at 37 °C 5% CO2 and 95% humidity. Then, 1 nM 5α-dihydrotestosterone (DHT) was added, and the cell plate was incubated overnight at 37 °C, 5% CO2, and 95% humidity. After compound incubation, the cell medium was removed, 5 µl of lysis buffer 1X (Promega) was added, and the cell plate was incubated with agitation 15 min at room temperature. A freeze–thaw cycle of 10 min at −80 °C and room temperature was performed. Then 25 µl of luciferase assay reagent (Promega) was added and luminescence was determined on an EnSpire plate reader (Perkin Elmer). Data was fitted to a four-parameter sigmoidal model with Prism 5.1 (Graphpad, Inc).
# The transcriptional activation of oestrogen receptor (ER) assay was carried out by adapting the OECD protocol 455 (OECD [2021]) and the method of Li et al. ([2013]).
# ER luciferase reporter T47D cells (5000 cells/well) were seeded into 384 white plates (Greiner 781098) in culture medium (RPMI 1640 (Thermo Fisher Scientific 52400), 10% foetal bovine serum (Sigma Aldrich F9665), 1% penicillin–streptomycin (Sigma-Aldrich P0781), 75 µg/ml Geneticin (Gibco 10131)) and incubated overnight at 37 °C and 5% CO2. The following day, the cell culture medium was discarded and replaced by assay medium (RPMI 1640 (Thermo Fisher Scientific 52,400), 0.1% foetal bovine serum (Sigma Aldrich F9665), and 1% penicillin–streptomycin (Sigma Aldrich P0781).
# The assay was performed as stated before for the AR assay using 17β-estradiol as agonist instead of DHT.
# ED was assessed by transactivation in vitro assays to identify agonists and antagonists of the androgen and oestrogen receptors.
# Also, the experimental group analysed the endocrine-disrupting activity for the CMR compounds.
# [5] = tested on: zebrafish embryos; settings: in vivo
# Description: In REACH, most of the mammalian tests for chemical safety assessment are related to reproductive toxicity (ECHA [2020]; Rovida and Hartung [2009]; Sellick [2011]) and consider complex molecular and cellular mechanisms determined in long-term experiments with very low throughput. To avoid the use of animals and to assay reproductive toxicity in a relevant 'non-animal' model adhering to the 3Rs rule, we used zebrafish embryos up to 120 hpf. Up to this developmental stage, the embryos are not considered animals according to European legislation (Sellick [2011]). When they reach the stage of independent feeding, zebrafish embryos become subject to regulations for animal experimentation. We performed a set of previously described experiments to cover a wide range of potential reprotoxic effects, including terato-carcinogenesis, developmental neurotoxicity, and endocrine disruption.
# (§1) Zebrafish embryos obtained and maintained as described previously for toxicity determination were used to determine (I) terato-carcinogenesis assayed as previously informed (Selderslaghs et al. [2009], [2012]) with modifications. In brief, embryos were incubated for 0 hpf up to 120 hpf in the presence and absence of tested compounds. Each condition was assayed in triplicate with 12 embryos per condition per replicate. The appearance of selected characteristics and malformations with respect to normal development were quantified for the eyes, otoliths, heart, circulation, hatching, skeletal deformities, and body position. For each concentration tested, we assessed the mortality and the presence of malformations at 24, 48, 72, 96, and 120 hpf using a light microscope. When possible, the lethal effects (LC50) and terato-carcinogenic effects (EC50) were determined using the ToxRat software. Based on these values, a teratogenic index (TI) was calculated as LC50/EC50. Based on previous studies, we considered a compound to be a teratogen when TI > 2 at 120 hpf. When no TI could be calculated due to no malformations induction to a degree extensive enough to calculate the EC50 in the presence of high toxicity, the compound was considered a non-teratogen. (II) Neurotoxicity was assayed by evaluating the locomotor activity in embryos exposed to the tested compounds from 0 to 120 hpf using Zebrabox and Zebralab (ViewPoint). We tested three concentrations (24 embryos per concentration) below the NOEC to avoid readily toxic concentrations. After incubation with tested compounds for 120 hs in 96-well plates, the activity of larvae in response to transitions from dark to light was evaluated. The protocol involved an initial 10 min acclimation period inside the Zebrabox, followed by three cycles of light–dark of 10 min each. After the end of each cycle, the integrated activity of each embryo was registered. Statistical analysis was done using ANOVA, followed by the Tukey post hoc test. Differences were considered significant when p < 0.05. Dead embryos were not considered in the analysis. (III) The endocrine-disrupting effect in zebrafish embryos was assayed by real-time PCR as previously reported (Jarque et al. [2019]) with modifications. In brief, 0 hpf embryos (12 embryos per condition in triplicate) were incubated with selected compounds for up to 120 hpf. After incubation, treated (embryos incubated at the concentration right below the NOEC) and control embryos were collected in RNA later and kept at − 20°C until use. RNA was extracted from the samples using the RNeasy Mini Kit (QIAGEN) and was followed by cDNA synthesis using random primers and the AffinityScript Multi Temperature cDNA Synthesis Kit (Agilent Technologies).
# [6] = tested on: zebrafish embryos; settings: in vivo; remark: listed apart in the source
# Protocol: as §1, with “Technologies). Finally, real-time PCR was performed for eight target genes to obtain data on the estrogenic (cytochrome P450 family 19 subfamily A member 1: cyp19a1b, and vitellogenin: vtg1), androgenic (cytochrome P450 family 2 […]: cyp2k22, and cytosolic sulphotransferase 3: sult2st3), and thyroid hormone (thyroid peroxidase: tpo, thyroid hormone receptor alpha: tra, transthyretin: ttr, and iodothyronine deiodinase 2: dio2) effect of the tested compounds. Significant changes in gene expression between controls and treated samples were considered as a potential endocrine-disrupting effect.” for “Technologies).”
# [7] = tested on: Bhas 42 cell line; test: Bhas 42 cell transformation assay (carcinogenesis); format: cell-based
# Protocol: This assay was carried out by adapting the in vitro Bhas 42 cell transformation assay method described in the OECD Guidance Document No. 231 ([2017]) based on the work of Sasaki et al. ([2014]).
# It consists of two assays with a different test compound addition schedule to identify compounds with initiating activity (tumour initiators) or promoting activity (tumour promoters). Previously, a cell growth assay for 7 days is performed to set the assay doses of the CTA and another cell growth assay is concurrently performed to the CTA to verify that the selected doses meet the acceptance criteria for the tests.
# The carcinogenesis potential of the compound was assayed by means of measuring the frequency of transformed foci (morphologically altered cells that form discrete anchorage-independent colonies) in the Bhas 42 cell line, which can be extrapolated to an assessment of carcinogenic potential. In the transformation assay, the incubation of compounds with two different treatment schedules allowed to identify the initiating or promoting carcinogenic potential of the compounds.
compound,measurement,setting,value
CC(Cl)C(=O)c1ccc(Cl)cc1 (centres unmarked) [2-Chloro-1-(4-chlorophenyl)propan-1-one],Micronucleus assay (M),"[1]; 6 h with or without S9, 24 h without S9",Negative
COC(=O)C=Cc1ccccc1 [Methyl cinnamate],Bioaccumulation (logKow),[2]; experimental value,2.62
same,Bioaccumulation,[3],No
"Cc1cc(N)ccc1N.O=S(=O)(O)O [2,5-Diaminotoluene sulphate]",Experimental result,[4],No
"CC(C)[C@H]1CC[C@H](C)C[C@@H]1O [Cyclohexanol, 5-methyl-2-(1-methylethyl)-, (1S,2R,5S)-]",Experimental result,[4],No
CCNC(N)=O [N-Ethylurea],Bioaccumulation (logKow),[2]; experimental value,-0.74
same,Bioaccumulation,[3],No
C=CC(=O)NC(C)C [N-Isopropylacrylamide],Bioaccumulation (logKow),[2]; predicted value,0.41
same,Bioaccumulation,[3],No
CC1=CC(=O)[C@@H](C(C)C)CC1 [(R)-6-(isopropyl)-3-methylcyclohex-2-en-1-one],Reprotoxicity (R) Teratogen,[5],No
same,Reprotoxicity (R) Endocrine disruptor,[6],No
same,reduction of embryo integrated activity,[6],up to 80%
same,Micronucleus assay (M),[1],Negative
C=C(C)C(=O)O [Methacrylic acid],Bioaccumulation (logKow),[2]; experimental value,0.93
same,Bioaccumulation,[3],No
CCCCCC1C(=O)CCC1CC(=O)OC (centres unmarked) [Methyl dihydrojasmonate],Experimental result,[4],Yes
C#CCBr [Propargyl bromide],Experimental result,[4]; endocrine disruptor yes/no,Yes
C=Cc1ccccn1 [2-Ethenylpyridine],Experimental result,[4],Yes
c1ccc2c(c1)ccc1ccccc12 [Phenanthrene],Experimental result,[4],Yes
O=[PH](O)O [Phosphonic acid],Carcinogen (C),[7],No
same,Experimental result,[4],No
O=[N+]([O-])c1ccccc1 [Nitrobenzene],Bioaccumulation (logKow),[2]; experimental value,1.85
same,Bioaccumulation,[3],No
